{
  "source": "patent US20240092835A1",
  "about": "“NOVEL PEPTIDES CAPABLE OF ALTERING NK CELL ACTIVITY” (Massachusetts Institute of Technology, priority 2022, published 2024)",
  "key": {"[1]": {"test_system": "NKG2A−/NKG2C+ NK cells", "test": "NK cell activation markers in NKG2A-/NKG2C+ NK cells incubated with peptide and K562 expressing HLA-E (activation)", "type": "cell-based, human", "conditions": "for effect on NKG2A−/NKG2C+ NK cell activation (in words): K562 expressing HLA-E, CD107a, IFNG, TNF, CCL3; for percentage of CCL3+ NK cells / percentage of CD107+ NK cells / percentage of IFNG+ NK cells / percentage of TNF+ NK cells: NKG2A-/NKG2C+ NK cells, K562/HLA-E", "outline": "(§1)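 Percent of NK cells positive for cell-surface markers was measured after exposure to K562 targets expressing HLA-E and loaded with human- or HCMV-proteome-derived peptides. A decrease means inhibition, an increase activation; NKG2A−/NKG2C− cells served as controls.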"}, "[2]": {"test_system": "NKG2A+/NKG2C− NK cells", "test": "NK cell activation markers in NKG2A+/NKG2C- NK cells incubated with peptide and K562 expressing HLA-E (inhibition)", "type": "cell-based, human", "conditions": "for percentage of CCL3+ NK cells / percentage of CD107a+ NK cells / percentage of IFNG+ NK cells / percentage of TNF+ NK cells: NKG2A+/NKG2C- NK cells, K562/HLA-E", "outline": "as §1"}, "[3]": {"target": "T1, HLA-E (Homo sapiens, UniProt P13747)", "T1 construct": "expressed in transfected cells; host or cells: RMA-S/HLA-E cells (antigen processing-defective lymphoma cell line)", "T1 sequence (P13747 22-358)": "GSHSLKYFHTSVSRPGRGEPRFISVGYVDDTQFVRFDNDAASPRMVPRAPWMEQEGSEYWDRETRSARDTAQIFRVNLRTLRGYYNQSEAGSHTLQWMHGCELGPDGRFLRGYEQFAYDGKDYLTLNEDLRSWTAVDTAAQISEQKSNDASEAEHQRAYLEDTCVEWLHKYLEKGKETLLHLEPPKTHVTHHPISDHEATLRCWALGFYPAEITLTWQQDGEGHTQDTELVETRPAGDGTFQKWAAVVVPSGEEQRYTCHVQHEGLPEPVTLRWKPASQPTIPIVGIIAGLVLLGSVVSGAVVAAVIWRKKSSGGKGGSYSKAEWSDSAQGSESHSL", "T1 sequence (P61769 21-119 partner)": "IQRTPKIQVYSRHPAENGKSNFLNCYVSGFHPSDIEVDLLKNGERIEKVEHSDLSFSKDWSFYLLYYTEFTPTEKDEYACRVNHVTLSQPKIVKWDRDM", "test": "HLA-E surface stabilization assay with RMA-S/HLA-E cells", "type": "cell-based", "conditions": "30 μM peptide, 16 hours; for HLA-E surface expression stability (GeoMFI): anti-HLA-E antibody", "description": "HLA-E surface expression was assessed by measuring geometric mean fluorescence intensity (GeoMFI) in RMA-S cells following immunofluorescence staining with an anti-HLA-E antibody (Table 14). Increased GeoMFI was indicative of increased HLA-E surface expression stability following novel peptide exposures (FIG. 3)."}, "[4]": {"test_system": "NKG2A−/NKG2C− NK cells", "test": "NK cell activation markers in control NKG2A-/NKG2C- NK cells incubated with peptide and K562 expressing HLA-E", "type": "cell-based, human", "outline": "as §1"}},
  "data": [
    {"sequence": "VLPHRTQFL [CMV1, novel CMV-derived peptide UL120 72-80, Merlin]", "values": [
      {"measurement": "effect on NKG2A−/NKG2C+ NK cell activation (in words)", "setting": "[1]", "result": "strong inhibitory and activating effects"},
      {"measurement": "effect on NKG2A−/NKG2C+ NK cell activation (in words)", "setting": "[1]; listed as SEQ ID NO. 15", "result": "strong activating effects"},
      {"measurement": "percentage of CCL3+ NK cells", "setting": "[1]; Trial 1", "result": 80.1, "unit": "%"},
      {"measurement": "percentage of CD107+ NK cells", "setting": "[1]; Trial 1", "result": 77.3, "unit": "%"},
      {"measurement": "percentage of IFNG+ NK cells", "setting": "[1]; Trial 1", "result": 66.3, "unit": "%"},
      {"measurement": "percentage of TNF+ NK cells", "setting": "[1]; Trial 1", "result": 53.3, "unit": "%"},
      {"measurement": "percentage of CCL3+ NK cells", "setting": "[1]; Trial 2", "result": 90.4, "unit": "%"},
      {"measurement": "percentage of CD107+ NK cells", "setting": "[1]; Trial 2", "result": 87.2, "unit": "%"},
      {"measurement": "percentage of IFNG+ NK cells", "setting": "[1]; Trial 2", "result": 82.8, "unit": "%"},
      {"measurement": "percentage of TNF+ NK cells", "setting": "[1]; Trial 2", "result": 76.1, "unit": "%"},
      {"measurement": "percentage of CCL3+ NK cells", "setting": "[1]; Trial 3", "result": 86.5, "unit": "%"},
      {"measurement": "percentage of CD107+ NK cells", "setting": "[1]; Trial 3", "result": 86.2, "unit": "%"},
      {"measurement": "percentage of IFNG+ NK cells", "setting": "[1]; Trial 3", "result": 78.5, "unit": "%"},
      {"measurement": "percentage of TNF+ NK cells", "setting": "[1]; Trial 3", "result": 68.8, "unit": "%"},
      {"measurement": "percentage of CCL3+ NK cells", "setting": "[1]; Trial 4", "result": 67.5, "unit": "%"},
      {"measurement": "percentage of CD107+ NK cells", "setting": "[1]; Trial 4", "result": 67.3, "unit": "%"},
      {"measurement": "percentage of IFNG+ NK cells", "setting": "[1]; Trial 4", "result": 58.2, "unit": "%"},
      {"measurement": "percentage of TNF+ NK cells", "setting": "[1]; Trial 4", "result": 51, "unit": "%"},
      {"measurement": "percentage of CCL3+ NK cells", "setting": "[1]; Trial 5", "result": 78.1, "unit": "%"},
      {"measurement": "percentage of CD107+ NK cells", "setting": "[1]; Trial 5", "result": 76.9, "unit": "%"},
      {"measurement": "percentage of IFNG+ NK cells", "setting": "[1]; Trial 5", "result": 69.5, "unit": "%"},
      {"measurement": "percentage of TNF+ NK cells", "setting": "[1]; Trial 5", "result": 66, "unit": "%"},
      {"measurement": "percentage of CCL3+ NK cells", "setting": "[1]; Trial 6", "result": 58.3, "unit": "%"},
      {"measurement": "percentage of CD107+ NK cells", "setting": "[1]; Trial 6", "result": 53.4, "unit": "%"},
      {"measurement": "percentage of IFNG+ NK cells", "setting": "[1]; Trial 6", "result": 42.5, "unit": "%"},
      {"measurement": "percentage of TNF+ NK cells", "setting": "[1]; Trial 6", "result": 33.3, "unit": "%"},
      {"measurement": "effect on NKG2A+/NKG2C− NK cell inhibition (in words)", "setting": "[2]; K562 expressing HLA-E, CD107a, IFNG, TNF, CCL3", "result": "strong inhibitory"},
      {"measurement": "percentage of CCL3+ NK cells", "setting": "[2]; Trial 1", "result": 3.55, "unit": "%"},
      {"measurement": "percentage of CD107a+ NK cells", "setting": "[2]; Trial 1", "result": 2.12, "unit": "%"},
      {"measurement": "percentage of IFNG+ NK cells", "setting": "[2]; Trial 1", "result": 0.46, "unit": "%"},
      {"measurement": "percentage of TNF+ NK cells", "setting": "[2]; Trial 1", "result": 0.27, "unit": "%"},
      {"measurement": "percentage of CCL3+ NK cells", "setting": "[2]; Trial 2", "result": 7.82, "unit": "%"},
      {"measurement": "percentage of CD107a+ NK cells", "setting": "[2]; Trial 2", "result": 3.42, "unit": "%"},
      {"measurement": "percentage of IFNG+ NK cells", "setting": "[2]; Trial 2", "result": 1.08, "unit": "%"},
      {"measurement": "percentage of TNF+ NK cells", "setting": "[2]; Trial 2", "result": 0.39, "unit": "%"},
      {"measurement": "percentage of CCL3+ NK cells", "setting": "[2]; Trial 3", "result": 7.91, "unit": "%"},
      {"measurement": "percentage of CD107a+ NK cells", "setting": "[2]; Trial 3", "result": 4.2, "unit": "%"},
      {"measurement": "percentage of IFNG+ NK cells", "setting": "[2]; Trial 3", "result": 2.52, "unit": "%"},
      {"measurement": "percentage of TNF+ NK cells", "setting": "[2]; Trial 3", "result": 1.09, "unit": "%"},
      {"measurement": "percentage of CCL3+ NK cells", "setting": "[2]; Trial 4", "result": 3.5, "unit": "%"},
      {"measurement": "percentage of CD107a+ NK cells", "setting": "[2]; Trial 4", "result": 3.15, "unit": "%"},
      {"measurement": "percentage of IFNG+ NK cells", "setting": "[2]; Trial 4", "result": 0.93, "unit": "%"},
      {"measurement": "percentage of TNF+ NK cells", "setting": "[2]; Trial 4", "result": 0.7, "unit": "%"},
      {"measurement": "percentage of CCL3+ NK cells", "setting": "[2]; Trial 5", "result": 14.5, "unit": "%"},
      {"measurement": "percentage of CD107a+ NK cells", "setting": "[2]; Trial 5", "result": 3.92, "unit": "%"},
      {"measurement": "percentage of IFNG+ NK cells", "setting": "[2]; Trial 5", "result": 1.35, "unit": "%"},
      {"measurement": "percentage of TNF+ NK cells", "setting": "[2]; Trial 5", "result": 0.82, "unit": "%"},
      {"measurement": "percentage of CCL3+ NK cells", "setting": "[2]; Trial 6", "result": 3.86, "unit": "%"},
      {"measurement": "percentage of CD107a+ NK cells", "setting": "[2]; Trial 6", "result": 2.27, "unit": "%"},
      {"measurement": "percentage of IFNG+ NK cells", "setting": "[2]; Trial 6", "result": 0.82, "unit": "%"},
      {"measurement": "percentage of TNF+ NK cells", "setting": "[2]; Trial 6", "result": 0.34, "unit": "%"},
      {"measurement": "HLA-E surface expression stability (GeoMFI)", "setting": "[3]; Trial 1", "result": 2140, "unit": "GeoMFI"},
      {"measurement": "HLA-E surface expression stability (GeoMFI)", "setting": "[3]; Trial 2", "result": 1714, "unit": "GeoMFI"},
      {"measurement": "HLA-E surface expression stability (GeoMFI)", "setting": "[3]; Trial 3", "result": 2014, "unit": "GeoMFI"},
      {"measurement": "HLA-E surface expression stability (GeoMFI)", "setting": "[3]; Trial 4", "result": 2421, "unit": "GeoMFI"},
      {"measurement": "HLA-E surface expression stabilization strength, approximate GeoMFI", "setting": "[3]; approximate value", "result": "approximately 2×10^3 GeoMFI"},
      {"measurement": "percentage CCL3+ NK cells", "setting": "[4]; Trial 1", "result": 29.9, "unit": "%"},
      {"measurement": "percentage CD107+ NK cells", "setting": "[4]; Trial 1", "result": 21.4, "unit": "%"},
      {"measurement": "percentage TNF+ NK cells", "setting": "[4]; Trial 1", "result": 2.62, "unit": "%"},
      {"measurement": "percentage of IFNG+ NK cells", "setting": "[4]; Trial 1", "result": 13.5, "unit": "%"},
      {"measurement": "percentage CCL3+ NK cells", "setting": "[4]; Trial 2", "result": 52.4, "unit": "%"},
      {"measurement": "percentage CD107+ NK cells", "setting": "[4]; Trial 2", "result": 32.5, "unit": "%"},
      {"measurement": "percentage TNF+ NK cells", "setting": "[4]; Trial 2", "result": 9.43, "unit": "%"},
      {"measurement": "percentage of IFNG+ NK cells", "setting": "[4]; Trial 2", "result": 27.7, "unit": "%"},
      {"measurement": "percentage CCL3+ NK cells", "setting": "[4]; Trial 3", "result": 47.3, "unit": "%"},
      {"measurement": "percentage CD107+ NK cells", "setting": "[4]; Trial 3", "result": 41.9, "unit": "%"},
      {"measurement": "percentage TNF+ NK cells", "setting": "[4]; Trial 3", "result": 13.6, "unit": "%"},
      {"measurement": "percentage of IFNG+ NK cells", "setting": "[4]; Trial 3", "result": 36.7, "unit": "%"},
      {"measurement": "percentage CCL3+ NK cells", "setting": "[4]; Trial 4", "result": 27.2, "unit": "%"},
      {"measurement": "percentage CD107+ NK cells", "setting": "[4]; Trial 4", "result": 25.7, "unit": "%"},
      {"measurement": "percentage TNF+ NK cells", "setting": "[4]; Trial 4", "result": 8.63, "unit": "%"},
      {"measurement": "percentage of IFNG+ NK cells", "setting": "[4]; Trial 4", "result": 17.4, "unit": "%"},
      {"measurement": "percentage CCL3+ NK cells", "setting": "[4]; Trial 5", "result": 26.6, "unit": "%"},
      {"measurement": "percentage CD107+ NK cells", "setting": "[4]; Trial 5", "result": 18.6, "unit": "%"},
      {"measurement": "percentage TNF+ NK cells", "setting": "[4]; Trial 5", "result": 6.68, "unit": "%"},
      {"measurement": "percentage of IFNG+ NK cells", "setting": "[4]; Trial 5", "result": 14.6, "unit": "%"},
      {"measurement": "percentage CCL3+ NK cells", "setting": "[4]; Trial 6", "result": 19.1, "unit": "%"},
      {"measurement": "percentage CD107+ NK cells", "setting": "[4]; Trial 6", "result": 14.5, "unit": "%"},
      {"measurement": "percentage TNF+ NK cells", "setting": "[4]; Trial 6", "result": 2.86, "unit": "%"},
      {"measurement": "percentage of IFNG+ NK cells", "setting": "[4]; Trial 6", "result": 8.57, "unit": "%"}
    ]}
  ]
}
